The assay has as its target T1, PD-1/PD-L1 (Homo sapiens, UniProt Q9NZQ7).
T1 construct: made in house; host or cells: HEK293T
As to the kind of experiment: PD-1/PD-L1 Homogenous Time-Resolved Fluorescence (HTRF) binding assay. To be noted: PD-L1-His 10 nM, PD-1-Ig 20 nM; value given as range class; read-out: Range or IC50. Put shortly:
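Read-out is time-resolved FRET between europium cryptate-labelled anti-Ig (1 nM final) and APC-labelled anti-His (20 nM final), both dispensed onto the binding mix. Assay buffer: dPBS containing 0.1% bovine serum albumin and 0.05% Tween-20.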
(Time-resolved FRET reads energy transfer from a long-lived donor to a nearby acceptor.)

T1 sequence (Q9NZQ7 with tags, fused parts or gaps): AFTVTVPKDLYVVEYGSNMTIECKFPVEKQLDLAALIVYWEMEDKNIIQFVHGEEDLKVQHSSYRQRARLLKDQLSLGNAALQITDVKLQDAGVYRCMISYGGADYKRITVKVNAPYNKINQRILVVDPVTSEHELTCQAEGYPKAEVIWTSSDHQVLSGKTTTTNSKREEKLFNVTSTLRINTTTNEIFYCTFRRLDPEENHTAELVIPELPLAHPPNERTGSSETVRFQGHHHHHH

The IC50 is the concentration needed to halve the response being measured. On to `Cc1c(COc2cc(OCc3cncc(C#N)c3)c(CN[C@](C)(CO)C(=O)O)cc2Cl)cccc1-c1cccc(OCCCN2CCC(O)CC2)c1C` [Example 1059, (R)-2-((5-chloro-2-((5-cyanopyridin-3-yl)methoxy)-4-((3′-(3-(4-hydroxypiperidin-1-yl)propoxy)-2,2′-dimethyl-[1,1′-biphenyl]-3-yl)methoxy)benzyl)amino)-3-hydroxy-2-methylpropanoic Acid], for which the IC50 was 0.21 to 10 nM.

On to `Cc1c(COc2cc(OCc3cncc(C#N)c3)c(CN[C@H](CO)C(=O)O)cc2Cl)cccc1-c1cccc(OCCCN2CCC(O)CC2)c1C` [Example 1060, (R)-2-((5-chloro-2-((5-cyanopyridin-3-yl)methoxy)-4-((3′-(3-(4-hydroxypiperidin-1-yl)propoxy)-2,2′-dimethyl-[1,1′-biphenyl]-3-yl)methoxy)benzyl)amino)-3-hydroxypropanoic Acid], for which the IC50 fell in the range of 0.21 to 10 nM.

With `Cc1c(COc2cc(OCc3cncc(C#N)c3)c(CN3CCCC[C@H]3C(=O)O)cc2Cl)cccc1-c1cccc(OCCCN2CCC(O)(C(=O)O)CC2)c1C` [Example 1061, (S)-1-(4-((3′-(3-(4-carboxy-4-hydroxypiperidin-1-yl)propoxy)-2,2′-dimethyl-[1,1′-biphenyl]-3-yl)methoxy)-5-chloro-2-((5-cyanopyridin-3-yl)methoxy)benzyl)piperidine-2-carboxylic Acid], the IC50 was in the range of 0.21 to 10 nM.

With `COC(=O)[C@@H]1C[C@@H](O)CN1CCCOc1cccc(-c2cccc(COc3cc(OCc4cncc(S(C)(=O)=O)c4)c(CN[C@](C)(CO)C(=O)O)cc3Cl)c2C)c1Cl` [Example 1068, (R)-2-((5-chloro-4-((2′-chloro-3′-(3-((2S,4R)-4-hydroxy-2-(methoxycarbonyl)pyrrolidin-1-yl)propoxy)-2-methyl-[1,1′-biphenyl]-3-yl)methoxy)-2-((5-(methylsulfonyl)pyridin-3-yl)methoxy)benzyl)amino)-3-hydroxy-2-methylpropanoic Acid], the IC50 lay in the range of 0.21 to 10 nM.

As to `COC(=O)[C@@H]1C[C@@H](O)CN1CCCOc1cccc(-c2cccc(COc3cc(OCc4cncc(S(C)(=O)=O)c4)c(CN4CCCC[C@H]4C(=O)O)cc3Cl)c2C)c1Cl` [Example 1069, (S)-1-(5-chloro-4-((2′-chloro-3′-(3-((2S,4R)-4-hydroxy-2-(methoxycarbonyl)pyrrolidin-1-yl)propoxy)-2-methyl-[1,1′-biphenyl]-3-yl)methoxy)-2-((5-(methylsulfonyl)pyridin-3-yl)methoxy)benzyl)piperidine-2-carboxylic Acid], the IC50 fell in the range of 0.21 to 10 nM.

Consider `Cc1cc(OCCCN2CC[C@@H](O)C2)ccc1-c1cccc(COc2cc(OCc3cncc(C#N)c3)c(CN[C@H](CO)C(=O)O)cc2Cl)c1C` [Example 1070, (R)-2-((5-chloro-2-((5-cyanopyridin-3-yl)methoxy)-4-((4′-(3-((R)-3-hydroxypyrrolidin-1-yl)propoxy)-2,2′-dimethyl-[1,1′-biphenyl]-3-yl)methoxy)benzyl)amino)-3-hydroxypropanoic Acid], for which the IC50 lay within 0.21 to 10 nM.

Regarding `Cc1cc(OCCCN2CC[C@@H](O)C2)ccc1-c1cccc(COc2cc(OCc3cncc(C#N)c3)c(CN3CCCC[C@H]3C(=O)O)cc2Cl)c1C` [Example 1071, (S)-1-(5-chloro-2-((5-cyanopyridin-3-yl)methoxy)-4-((4′-(3-((R)-3-hydroxypyrrolidin-1-yl)propoxy)-2,2′-dimethyl-[1,1′-biphenyl]-3-yl)methoxy)benzyl)piperidine-2-carboxylic Acid], the IC50 fell in the range of 0.21 to 10 nM.

As to `COC(=O)C1CN(CCCOc2cccc(-c3cccc(COc4cc(OCc5cncc(S(C)(=O)=O)c5)c(CN5CCCC[C@H]5C(=O)O)cc4Cl)c3C)c2C)CC1O` (stereo partly drawn) [Example 1072, (2S)-1-(5-chloro-4-((3′-(3-(3-hydroxy-4-(methoxycarbonyl)pyrrolidin-1-yl)propoxy)-2,2′-dimethyl-[1,1′-biphenyl]-3-yl)methoxy)-2-((5-(methylsulfonyl)pyridin-3-yl)methoxy)benzyl)piperidine-2-carboxylic Acid], the half-maximal inhibitory concentration (IC50) is 0.21 to 10 nM.

The values are drawn from patent US10745382B2 (BRISTOL-MYERS SQUIBB COMPANY, priority 2015, dated 2020).
